Structures can show the parent of a compound that is named as a salt.

The series can be described thus: Physical stability of polymorphs on storage, tested by PXRD. The series is classed as physicochemical. To be noted: for physical stability (PXRD analysis): up to three months. How it is done: The powder X-ray diffraction patterns of said polymorphs of the invention were measured on a PANalytical X′Pert PRO powder diffractometer equipped with a goniometer of θ/θ configuration and X'Celerator detector. The Cu-anode X-ray tube was operated at 40 kV and 30 mA. The experiments were conducted over the 2θ range of 2.0°-50.0°, 0.0330 step size and 50 seconds step time.
In yet another embodiment, the physical stability of crystalline mitapivat hemi sulfate Form VII and crystalline mitapivat hemi sulfate Form XI were determined by storing the samples at 40° C./75% relative humidity (RH) and at 25° C./60% RH conditions for three months as shown in Table 1.

Take `O=C(c1ccc(NS(=O)(=O)c2cccc3cccnc23)cc1)N1CCN(CC2CC2)CC1` [Mitapivat hemi sulfate Form VII, 8-quinolinesulfonamide, N-[4-[[4(cyclopropylmethyl)-1-piperazinyl]carbonyl]phenyl]-, sulfate]: the “physical stability (PXRD analysis)” value (25° C./60% relative humidity (RH)) is given as “physically stable” and the “physical stability (PXRD analysis)” value (40° C./75% relative humidity (RH)) is on record as “physically stable”. Besides, the “PXRD (physical stability)” value is, setting by setting: (stored at 25° C./60% RH, 1 month) “Stable”; (stored at 25° C./60% RH, 2 months) “Stable”; (stored at 25° C./60% RH, 3 months) “Stable”; (stored at 40° C./75% RH, 1 month) “Stable”; (stored at 40° C./75% RH, 3 months) “Stable”.

As for `O=C(c1ccc(NS(=O)(=O)c2cccc3cccnc23)cc1)N1CCN(CC2CC2)CC1` [Mitapivat hemi sulfate Form XI, 8-quinolinesulfonamide, N-[4-[[4(cyclopropylmethyl)-1-piperazinyl]carbonyl]phenyl]-, sulfate], for the setting “stored at 40° C./75% RH, 2 months”, the “PXRD (physical stability)” value is “Stable”.

Source of the values: US20260146025A1, “CRYSTALLINE POLYMORPHS OF MITAPIVAT AND MITAPIVAT HEMISULFATE” (TIANISH LABORATORIES PRIVATE LIMITED, priority 2022, published 2026).
